Consider 10 compounds from patent publication US9422338B2 (EpoDose LLC, priority 2011, dated 2016).

The experiment has as its target T1, EPOR (erythropoietin receptor), human recombinant, NSO cells (Homo sapiens, UniProt P19235).
T1 construct: host or cells: NSO cells
T1 sequence (P19235 25-250 limits assumed): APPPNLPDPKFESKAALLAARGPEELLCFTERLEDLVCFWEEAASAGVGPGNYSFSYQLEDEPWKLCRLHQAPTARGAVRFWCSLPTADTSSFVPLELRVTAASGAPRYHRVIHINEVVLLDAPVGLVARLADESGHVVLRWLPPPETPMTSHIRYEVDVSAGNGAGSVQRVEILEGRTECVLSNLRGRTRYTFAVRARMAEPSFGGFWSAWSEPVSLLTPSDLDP
Kind of experiment: EPOR radioligand binding assay ([125I] Erythropoietin competition). Conditions: for Ki (AC-0005-002)/Ki: Ki relative to that of AC-0005-002. As for the experimental part:
IC50 values were determined by a non-linear, least squares regression analysis using MATHIQ™ (computer software for integrating mathematical functions into new or existing software). […] Where presented, the Hill coefficient (nH), defining the slope of the competitive binding curve, was calculated using MATHIQ™.

Where [1] appears, read: Example 1, mimetics varied in N-end, loop and mid sequences.
[2] abbreviates: Example 2, mimetics varied in loop, mid and C-end.

Where a SMILES comes first, the peptide text is derived from it. Bridges are numbered along the chain shown (N, C = ends). Roman numbers before positions name the chains, in order. [ ]: non-standard residue; d: D form. ξ: configuration not given here. 1Nal = N[C@@H](Cc1cccc2ccccc12)C(=O)O; ξK = NCCCCC(N)C(=O)O; Ava = NCCCCC(=O)O Some results are limits rather than exact numbers.

Regarding `CSCC[C@@H]1NC(=O)[C@H](CCCNC(=N)N)NC(=O)C(NC(=O)[C@H](CC(C)C)NC(=O)[C@H](Cc2ccc(O)cc2)NC(=O)[C@H](CC(N)=O)NC(C)=O)CCOCC(C(=O)N[C@@H](CCCCNC(=N)N)C(=O)N2CCC[C@H]2C(=O)NCCCCC(=O)NCCCCC(NC(=O)[C@@H]2CCCN2C(=O)[C@H](CCCCNC(=N)N)NC(=O)C2COCCC(NC(=O)[C@H](CC(C)C)NC(=O)[C@H](Cc3ccc(O)cc3)NC(=O)[C@H](CC(N)=O)NC(C)=O)C(=O)N[C@@H](CCCNC(=N)N)C(=O)N[C@@H](CCSC)C(=O)N3CCC[C@H]3C(=O)N[C@@H](Cc3c[nH]c4ccccc34)C(=O)N[C@@H](C(C)C)C(=O)N2)C(N)=O)NC(=O)[C@H](C(C)C)NC(=O)[C@H](Cc2c[nH]c3ccccc23)NC(=O)[C@@H]2CCCN2C1=O` (stereo partly drawn) [AC-0005-051], the Ki amounted to 0.0046 µM under setting [1] and 0.0048 µM (Example 3, Cheng-Prusoff). The IC50 (Example 3) was 0.0101 µM and the IC50 (Example 4, fifth table) worked out at 0.0096 µM.
Take `CSCC[C@@H]1NC(=O)[C@H](CCCNC(=N)N)NC(=O)C(NC(=O)[C@H](CC(C)C)NC(=O)[C@H](Cc2ccc(O)cc2)NC(=O)[C@H](CC(N)=O)NC(C)=O)CCOCC(C(=O)N[C@@H](CCCCNC(=N)N)C(=O)N2CCC[C@H]2C(=O)NCCCOCCC(OCCCNC(=O)[C@@H]2CCCN2C(=O)[C@H](CCCCNC(=N)N)NC(=O)C2COCCC(NC(=O)[C@H](CC(C)C)NC(=O)[C@H](Cc3ccc(O)cc3)NC(=O)[C@H](CC(N)=O)NC(C)=O)C(=O)N[C@@H](CCCNC(=N)N)C(=O)N[C@@H](CCSC)C(=O)N3CCC[C@H]3C(=O)N[C@@H](Cc3ccc4ccccc4c3)C(=O)N[C@@H](C(C)C)C(=O)N2)C(N)=O)NC(=O)[C@H](C(C)C)NC(=O)[C@H](Cc2ccc3ccccc3c2)NC(=O)[C@@H]2CCCN2C1=O` (stereo partly drawn) [AC-0005-064]: under setting [2], the Ki was 0.0006 µM. For the same compound, under “Example 4, sixth table”, the IC50 was 0.0013 µM.
`CSCC[C@@H]1NC(=O)[C@H](CCCNC(=N)N)NC(=O)C(NC(=O)[C@H](CC(C)C)NC(=O)[C@H](Cc2ccc(O)cc2)NC(=O)[C@H](CC(N)=O)NC(C)=O)CCOCC(C(=O)N[C@@H](CCCCN)C(=O)N2CCC[C@H]2C(=O)NCCCCC(=O)NCCCCC(NC(=O)[C@@H]2CCCN2C(=O)[C@H](CCCCN)NC(=O)C2COCCC(NC(=O)[C@H](CC(C)C)NC(=O)[C@H](Cc3ccc(O)cc3)NC(=O)[C@H](CC(N)=O)NC(C)=O)C(=O)N[C@@H](CCCNC(=N)N)C(=O)N[C@@H](CCSC)C(=O)NCC(=O)N[C@@H](Cc3c[nH]c4ccccc34)C(=O)N[C@@H](C(C)C)C(=O)N2)C(N)=O)NC(=O)[C@H](C(C)C)NC(=O)[C@H](Cc2c[nH]c3ccccc23)NC(=O)CNC1=O` (stereo partly drawn) [AC-0005-018]: the Ki under setting [1] worked out at 0.022 µM and the Ki (Example 4, fourth table) was found to be 0.033 µM. The IC50 came to 0.07 µM (Example 4, fourth table) and 0.047 µM (Example 4, second table).
As for `CSCC[C@@H]1NC(=O)[C@H](CCCNC(=N)N)NC(=O)C(NC(=O)[C@H](CC(C)C)NC(=O)[C@H](Cc2ccc(O)cc2)NC(=O)[C@H](CC(N)=O)NC(C)=O)CCOCC(C(=O)N[C@@H](CCCCN)C(=O)N2CCC[C@H]2C(=O)NCCCCC(=O)NCCCCC(NC(=O)[C@@H]2CCCN2C(=O)[C@H](CCCCN)NC(=O)C2COCCC(NC(=O)[C@H](CC(C)C)NC(=O)[C@H](Cc3ccc(O)cc3)NC(=O)[C@H](CC(N)=O)NC(C)=O)C(=O)N[C@@H](CCCNC(=N)N)C(=O)N[C@@H](CCSC)C(=O)N[C@@H](CCc3ccccc3)C(=O)N[C@@H](Cc3c[nH]c4ccccc34)C(=O)N[C@@H](C(C)C)C(=O)N2)C(N)=O)NC(=O)[C@H](C(C)C)NC(=O)[C@H](Cc2c[nH]c3ccccc23)NC(=O)[C@H](CCc2ccccc2)NC1=O` (stereo partly drawn) [AC-0005-023], the Ki under setting [1] turned out to be 0.017 µM. Under “Example 4, fourth table”, the IC50 was 0.035 µM.
Regarding `CSCC[C@@H]1NC(=O)[C@H](CCCNC(=N)N)NC(=O)C(NC(=O)[C@H](CC(C)C)NC(=O)[C@H](Cc2ccc(O)cc2)NC(C)=O)CCOCC(C(=O)N[C@@H](CCCCNC(=N)N)C(=O)N2CCC[C@H]2C(=O)NCCCCC(=O)NCCCCC(NC(=O)[C@@H]2CCCN2C(=O)[C@H](CCCCNC(=N)N)NC(=O)C2COCCC(NC(=O)[C@H](CC(C)C)NC(=O)[C@H](Cc3ccc(O)cc3)NC(C)=O)C(=O)N[C@@H](CCCNC(=N)N)C(=O)N[C@@H](CCSC)C(=O)N3CCC[C@H]3C(=O)N[C@@H](Cc3c[nH]c4ccccc34)C(=O)N[C@@H](C(C)C)C(=O)N2)C(N)=O)NC(=O)[C@H](C(C)C)NC(=O)[C@H](Cc2c[nH]c3ccccc23)NC(=O)[C@@H]2CCCN2C1=O` (stereo partly drawn) [AC-0005-052], the Ki is, setting by setting: under setting [1], 0.0114 µM; (Example 3, Cheng-Prusoff) 0.0116 µM. For the same compound, the IC50 by setting is: (Example 3) 0.0244 µM; (Example 4, fifth table) 0.024 µM.
Regarding `CSCC[C@@H]1NC(=O)[C@H](CCCNC(=N)N)NC(=O)C(NC(=O)[C@H](CC(C)C)NC(=O)[C@H](Cc2ccc(O)cc2)NC(=O)[C@H](CC(N)=O)NC(C)=O)CCOCC(C(=O)N[C@@H](CCCCN)C(=O)N2CCC[C@H]2C(=O)NC(CCCCNC(=O)CCCC(NC(=O)[C@@H]2CCCN2C(=O)[C@H](CCCCN)NC(=O)C2COCCC(NC(=O)[C@H](CC(C)C)NC(=O)[C@H](Cc3ccc(O)cc3)NC(=O)[C@H](CC(N)=O)NC(C)=O)C(=O)N[C@@H](CCCNC(=N)N)C(=O)N[C@@H](CCSC)C(=O)N3CCC[C@H]3C(=O)N[C@@H](Cc3ccc4ccccc4c3)C(=O)N[C@@H](C(C)C)C(=O)N2)C(=O)NCCC(=O)N[C@@H](CCCNC(=N)N)C(N)=O)C(=O)NCCC(=O)N[C@@H](CCCNC(=N)N)C(N)=O)NC(=O)[C@H](C(C)C)NC(=O)[C@H](Cc2ccc3ccccc3c2)NC(=O)[C@@H]2CCCN2C1=O` (stereo partly drawn) [AC-0005-062], the inhibitory constant (Ki) under setting [2] stood at 0.0012 µM. Besides, the half-maximal inhibitory concentration (IC50) (Example 4, sixth table) stood at 0.0024 µM.
Take “I: Ac-GGLYACHMGPIT[1Nal]VCQPQGG[ξK]-NH2 / II: Ac-GGNYLCHMGPIT[1Nal]VCQPQGG[Ava] (disulfide I:6-I:15, II:6-II:15; amide I:21-II:C) [AC-0005-002]”: the “Ki (AC-0005-002)/Ki” value (Example 4, first table) is recorded as 1.
On to `CSCC[C@H]1COC2CCCC2C(=O)N[C@@H](Cc2c[nH]c3ccccc23)C(=O)N[C@@H](C(C)C)C(=O)NC(C(=O)N[C@@H](CCCCNC(=N)N)C(=O)N2CCC[C@H]2C(=O)NCCCCC(=O)NCCCCC(NC(=O)[C@@H]2CCCN2C(=O)[C@H](CCCCNC(=N)N)NC(=O)C2COCCC(NC(=O)[C@H](CC(C)C)NC(=O)[C@H](Cc3ccc(O)cc3)NC(=O)[C@H](CC(N)=O)NC(C)=O)C(=O)N[C@@H](CCCNC(=N)N)C(=O)N[C@@H](CCSC)COC3CCCC3C(=O)N[C@@H](Cc3c[nH]c4ccccc34)C(=O)N[C@@H](C(C)C)C(=O)N2)C(N)=O)COCCC(NC(=O)[C@H](CC(C)C)NC(=O)[C@H](Cc2ccc(O)cc2)NC(=O)[C@H](CC(N)=O)NC(C)=O)C(=O)N[C@@H](CCCNC(=N)N)C(=O)N1` (stereo partly drawn) [AC-0005-057], for which the “NH (Hill coefficient)” value (Example 3, slope of competitive binding curve) is listed as 1.84. For the same compound, the “Ki (AC-0005-002)/Ki” value (Example 4, fifth table) stood at 379. In addition, the “Ki/Ki(EPO)” value (Example 4, fifth table, Ki relative to that of EPO) came out at 128.
In the case of `CC[C@H](C)[C@@H]1NC(=O)[C@@H]2CCCN2C(=O)CNC(=O)[C@H](CCSC)NC(=O)[C@H](CCCNC(=N)N)NC(=O)[C@@H](NC(=O)[C@H](CC(C)C)NC(=O)[C@H](Cc2ccc(O)cc2)NC(=O)[C@H](CC(N)=O)NC(C)=O)CSSC[C@@H](C(=O)N[C@@H](CCCCN)C(=O)N2CCC[C@H]2C(=O)NCCCCC(=O)NCCCCC(NC(=O)[C@@H]2CCCN2C(=O)[C@H](CCCCN)NC(=O)[C@@H]2CSSC[C@H](NC(=O)[C@H](CC(C)C)NC(=O)[C@H](Cc3ccc(O)cc3)NC(=O)[C@H](CC(N)=O)NC(C)=O)C(=O)N[C@@H](CCCNC(=N)N)C(=O)N[C@@H](CCSC)C(=O)NCC(=O)N3CCC[C@H]3C(=O)N[C@@H]([C@@H](C)CC)C(=O)N[C@@H]([C@@H](C)O)C(=O)N[C@@H](Cc3c[nH]c4ccccc34)C(=O)N[C@@H](C(C)C)C(=O)N2)C(N)=O)NC(=O)[C@H](C(C)C)NC(=O)[C@H](Cc2c[nH]c3ccccc23)NC(=O)[C@H]([C@@H](C)O)NC1=O` (stereo partly drawn) [AC-0005-003] (I: Ac-NYLCRMGPITWVCKP[ξK]-NH2 / II: Ac-NYLCRMGPITWVCKP[Ava]; disulfide I:4-I:13, II:4-II:13; amide I:16-II:C), the Ki under setting [1] turned out to be 0.048 µM.
For `CC[C@H](C)[C@@H]1NC(=O)[C@@H]2CCCN2C(=O)CNC(=O)[C@H](CCSC)NC(=O)[C@H](Cc2c[nH]cn2)NC(=O)[C@@H](NC(=O)[C@H](C)NC(=O)[C@H](Cc2ccc(O)cc2)NC(=O)[C@H](CC(C)C)NC(C)=O)CSSC[C@@H](C(=O)N[C@@H](CCC(N)=O)C(=O)NCCCCC(=O)NCCCCC(NC(=O)[C@H](CCC(N)=O)NC(=O)[C@@H]2CSSC[C@H](NC(=O)[C@H](C)NC(=O)[C@H](Cc3ccc(O)cc3)NC(=O)[C@H](CC(C)C)NC(C)=O)C(=O)N[C@@H](Cc3c[nH]cn3)C(=O)N[C@@H](CCSC)C(=O)NCC(=O)N3CCC[C@H]3C(=O)N[C@@H]([C@@H](C)CC)C(=O)N[C@@H]([C@@H](C)O)C(=O)N[C@@H](Cc3cccc4ccccc34)C(=O)N[C@@H](C(C)C)C(=O)N2)C(N)=O)NC(=O)[C@H](C(C)C)NC(=O)[C@H](Cc2cccc3ccccc23)NC(=O)[C@H]([C@@H](C)O)NC1=O` (stereo partly drawn) [AC-0005-005] (I: Ac-LYACHMGPIT[1Nal]VCQ[ξK]-NH2 / II: Ac-LYACHMGPIT[1Nal]VCQ[Ava]; disulfide I:4-I:13, II:4-II:13; amide I:15-II:C), for the setting “Example 4, first table”, the IC50 is > 10 µM.
